Among the data in US20100022559A1, “BISOXIMES AS FUNGICIDES” (BAYER CROPSCIENCE AG, priority 2006, published 2010) are logP and chromatographic logP values, retold here.

A short description of one series: logP determination by HPLC on a reversed-phase column (C 18), EEC Directive 79/831 Annex V.A8. Type of series: physicochemical. The following applies: [a] acidic range, pH 2.3, 0.1% aqueous phosphoric acid and acetonitrile. As for the experimental part:
The stated logP values were determined in accordance with EEC Directive 79/831 Annex V.A8 by HPLC (high performance liquid chromatography) on a reversed-phase column (C 18). Temperature: 43° C.
With `C/C(=N\OCCCCON)c1ccc(C)c(C)n1` [XII-17], the logP was 0.51^[a].

Staying with this series, now noted: method marked [b] in Table 1.
With `CC(=NOCC(C)CON=C(C)c1ccc2cccc(C)c2n1)c1ccc2cccc(C)c2n1` (stereo not shown) [compound 687], the logP is 7.36^[b].
Regarding `CC(=NOCC1(CON=C(C)c2cccc(C)n2)CC(CC(C)C)=NO1)c1cccc(C)n1` (stereo not shown) [compound 599], the logP is 3.89^[b].
Same read-out and setting: as for `CC(C)=CC1=NOC(CO/N=C(\C)c2ccc(C)c(C)n2)(CO/N=C(\C)c2ccc(C)c(C)n2)C1` [compound 636], the figure is 3.46^[b].
Same read-out and setting: next, `N/C(=N\OCc1ccccc1CO/N=C(\N)c1nc(C2CC2)cc(C2CC2)n1)c1nc(C2CC2)cc(C2CC2)n1` [compound 711]: 3.85^[b]; `Cc1nc(/C(N)=N/OCc2ccc(CO/N=C(\N)c3nc(C)c4c(n3)CCCC4)cc2)nc2c1CCCC2` [compound 717]: 3.09^[b].
As for `CC(=NOCC(CON=C(C)c1nc(C)ccc1C)c1ccccc1)c1nc(C)ccc1C` (single isomer, unassigned) [compound 754], the logP was 2.91^[b].
Regarding `CCCC1=NOC(CON=C(C)c2cccc(C)n2)(CON=C(C)c2cccc(C)n2)C1` (stereo not shown) [compound 598], the logP was 3.33^[b].

The same series, now with this note: method marked [c] in Table 1.
In the case of `CC(=NOCC(C)CON=C(C)c1ccc2cccc(C)c2n1)c1ccc2cccc(C)c2n1` (stereo not shown) [compound 687], the logP was 7.36^[c].
On to `CC(=NOCC(CON=C(C)c1nc(C)ccc1C)c1ccccc1)c1nc(C)ccc1C` (single isomer, unassigned) [compound 754], for which the logP is 4.59^[c].

Still in this series, the particulars now being: method marker [a] (footnote not shown); isomer A / isomer B / isomer mixture as noted in the cell.
Take `Cc1cccnc1C(=NOCCCON=C(c1ncccc1C)C(C)C)C(C)C` (mixture of isomers) [compound 92]: the logP is 4.13^[a].
Still for that read-out and setting: as for `CC(=NOCCCON=C(C)c1cccc(C(C)C)n1)c1cccc(C(C)C)n1` [compound 230], the figure is 7.36^[a]; as for `CCCC(=NOCC(C)CON=C(CCC)c1cccc(C)n1)c1cccc(C)n1` (stereo not shown) [Compound 112], 6.61^[a].
On the same count and under the same terms, next, `CCC(=NOCCCON=C(CC)c1ccc(C)c(C)n1)c1ccc(C)c(C)n1` (mixture of isomers) [Compound 236]: 3.80^[a]; `Cc1cccnc1C(Cc1ccccc1)=NOCCCON=C(Cc1ccccc1)c1ncccc1C` (single isomer, unassigned) [compound 96]: 5.54^[a] (isomer B).

The same series, now with this note: method marker [b]; isomer A / isomer B / isomer mixture as noted in the cell.
Take `C=C(CON=C(C)c1cccs1)CON=C(C)c1nccs1` [compound 78]: the logP was 4.31^[b].
Still for that read-out and setting: as for `C=C(CON=C(C)c1cc(Cl)cc(Cl)c1)CON=C(C)c1cccc(C)n1` [compound 24], the figure is 6.30^[b]; as for `C=C(CON=C(C)c1cccnc1Cl)CON=C(C)c1cccnc1Cl` [compound 148], 3.53^[b].
On to `C=C(CO/N=C(\N)c1nc(C)c2c(n1)CCCC2)CO/N=C(\N)c1nc(C)c2c(n1)CCCC2` [compound 43], for which the logP was 2.67^[b].
The same measure, in the same setting: next, `CC(=NOCON=C(C)c1ccccn1)c1ccccn1` [Compound 59]: 2.23^[b]; `C=C(CON=C(C)c1cccc(C)n1)CON=C(N)c1nc(C)cc(C)n1` [compound 192]: 1.97^[b].
Still for that read-out and setting: next, `CC(=NOCCCON=C(C)c1ccccn1)c1ccccn1` [compound 31]: 2.67^[b]; `Cc1cc(C)nc(C(N)=NOCCCCON=C(N)c2cc(C)cc(C)n2)c1` [compound 123]: 2.67^[b].
Same read-out and setting: as for `CC(=NOCCON=C(C)c1ncc(Cl)cc1Cl)c1ncc(Cl)cc1Cl` [compound 55], the figure is 5.39^[b].

The series is the same for the next values; noted with them: reversed-phase HPLC column (C 18); HCO2H; HPLC reversed-phase column (C 18), 43° C.; read-out: logP (HCO2H).
Regarding `Cc1cc(C)nc(/C(N)=N/OCC(C)CO/N=C(\N)c2nc(C)cc(C)n2)n1` (stereo not shown) [drawing 85, N′,N″-[(2-methylpropane-1,3-diyl)bis(oxy)]bis(4,6-dimethylpyrimidine-2-carboximidamide)], the chromatographic logP was 1.81.
Still for that read-out and setting: next, `C/C(=N\OCC(=O)CO/N=C(\C)c1cccc(C)n1)c1cccc(C)n1` [(2E,9E)-2,10-bis(6-methylpyridin-2-yl)-4,8-dioxa-3,9-diazaundeca-2,9-dien-6-one]: 2.2.

Still in this series, the particulars now being: value marked [a].
For the molecule `CC(=NOCC(C)(C)CON=C(C)c1cccc(Cc2ccccc2)n1)c1cccc(C)n1` [Compound 364], the logP is 6.47^[a].
Take `Cc1cccc(C(Cl)=NOCC(C)CON=C(Cl)c2cccc(C)n2)n1` (stereo not shown) [Compound 824]: the logP is 4.58^[a].
The same measure, in the same setting: as for `C=C(CON=C(c1cccc(C)n1)C(C)C)CON=C(c1cccc(C)n1)C(C)C` (single isomer, unassigned) [compound 274], the figure is 4.87^[a] (isomer B); as for `CC(=NOC1CCC(ON=C(C)c2cc(C)cc(C)n2)C1)c1cc(C)cc(C)n1` (mixture of isomers) [compound 796], 2.55^[a]; as for `CCCC(=NOCC(C)(C)CON=C(CCC)c1cccc(C)n1)c1cccc(C)n1` [Compound 279], 7.25^[a].
As to `CC(=NOCC(C)CON=C(C)c1cccc(NCC2CC2)n1)c1cccc(NCC2CC2)n1` (stereo not shown) [Compound 791], the logP was 1.95^[a].

The same series, now with this note: value marked [b].
Turning to `C=C(CON=C(C)c1ccc2ccccc2c1)CON=C(C)c1cccc(C)n1` [compound 472], the logP was 5.48^[b].
Still for that read-out and setting: as for `CC(=NOCC(C)(C)CON=C(C)c1cccc(CC(C)C)n1)c1cccc(C)n1` [Compound 367], the figure is 7.07^[b].
On the same count and under the same terms, as for `CC(=NOCC(C)(C)CON=C(C)c1cc(C)cc(C)n1)c1cccc(C)n1` [Compound 487], the figure is 3.33^[b]; as for `CC(=NOCC(C)CON=C(C)c1ncccc1C)c1cccc(C)n1` (stereo not shown) [compound 503], 3.37^[b]; as for `CC(=NOCCC(C)ON=C(C)c1ccc(C)c(C)n1)c1ccc(C)c(C)n1` (stereo not shown) [Compound 519], 2.75^[b].
On the same count and under the same terms, next, `CCC(C)(CON=C(C)c1ccc(C)c(C)n1)CON=C(C)c1ccc(C)c(C)n1` (stereo not shown) [Compound 793]: 5.39^[b]; `CC(=NOCCCCON=C(C)c1cccc(C)n1)c1ccnc(C)c1` [compound 338]: 1.71^[b]; `CC(=NOCCCCCCON=C(C)c1cccc(C)n1)c1ccc(C)nc1` [compound 394]: 2.62^[b].
As to `CC(=NOCCCCON=C(C)c1cccnc1C)c1cccc(C)n1` [compound 448], the logP is 1.69^[b].
As to `Cc1cc(C)nc(C(N)=NOC/C=C/CON=C(N)c2cc(C)cc(C)n2)c1` (single isomer, unassigned) [compound 771], the logP is 2.70^[b] (isomer A).
Same read-out and setting: next, `CCCC(CON=C(C)c1ccc(C)c(C)n1)CON=C(C)c1ccc(C)c(C)n1` (stereo not shown) [Compound 316]: 4.48^[b]; `CC(=NOCCCCON=C(CC(C)C)c1cccc(C)n1)c1cccc(C)n1` (single isomer, unassigned) [compound 530]: 5.48^[b] (isomer B).
The same measure, in the same setting: as for `CC(=NOCCCCCCON=C(C)c1cccc(C)n1)c1cccc(C(F)(F)F)c1` [compound 387], the figure is 6.51^[b].
In the case of `CC(=NOCCCCON=C(c1cccc(C)n1)C(C)C)c1cccc(C)n1` (single isomer, unassigned) [compound 525], the logP was 3.65^[b] (isomer A).
The same measure, in the same setting: as for `Cc1cccc(C=NOCCCCON=Cc2cccc(C)n2)n1` [compound 776], the figure is 2.16^[b].
Same read-out and setting: next, `CC(=NOCCCCON=C(C)c1ccc(Cl)s1)c1cccc(C)n1` [compound 446]: 4.97^[b]; `CCCc1cccc(C(C)=NOCC(C)CON=C(C)c2cccc(C)n2)n1` (stereo not shown) [Compound 502]: 5.84^[b].

Staying with this series, now noted: value marked [c].
Regarding `CC(=NOCCC(C)ON=C(C)c1ccc(C)c(C)n1)c1ccc(C)c(C)n1` (stereo not shown) [Compound 519], the logP was 6.27^[c].
Same read-out and setting: next, `CCC(C)(CON=C(C)c1ccc(C)c(C)n1)CON=C(C)c1ccc(C)c(C)n1` (stereo not shown) [Compound 793]: 7.27^[c].
As for `CCCC(CON=C(C)c1ccc(C)c(C)n1)CON=C(C)c1ccc(C)c(C)n1` (stereo not shown) [Compound 316], the logP was 7.23^[c].
